Where two headings read alike, the source gives them in different places.
Key:
Format in all cases: cell-based
[1] = target: T1, hGIPR (Homo sapiens, UniProt P48546); experiment: Functional cAMP formation (HTRF) in HEK-293 clonal cells expressing hGIPR, 0.1% bovine casein, without or with 1.0% human serum albumin; settings: for Emax: percent of maximal response to GIP(1-42)NH2; for EC50: geometric mean
T1 construct: expressed in transfected cells
T1 sequence (P48546 22-466): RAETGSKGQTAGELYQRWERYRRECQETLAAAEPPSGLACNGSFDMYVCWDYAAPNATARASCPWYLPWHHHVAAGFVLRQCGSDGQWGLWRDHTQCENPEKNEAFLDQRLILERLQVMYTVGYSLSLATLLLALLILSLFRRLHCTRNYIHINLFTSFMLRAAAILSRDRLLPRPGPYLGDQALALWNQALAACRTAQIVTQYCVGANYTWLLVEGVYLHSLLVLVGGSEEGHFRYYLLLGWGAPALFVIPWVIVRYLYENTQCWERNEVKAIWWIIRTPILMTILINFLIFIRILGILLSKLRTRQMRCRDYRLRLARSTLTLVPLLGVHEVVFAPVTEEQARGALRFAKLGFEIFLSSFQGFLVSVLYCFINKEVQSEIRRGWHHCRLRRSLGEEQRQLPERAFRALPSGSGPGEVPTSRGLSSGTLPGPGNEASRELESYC
Method in brief: (§1)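 Cells were stimulated with peptide for 30 min at 37° C, then lysed in buffer carrying cAMP-d2 and anti-cAMP Eu3+-cryptate for a competitive HTRF read after at least 60 min at room temperature. The 665/620 nm ratio was converted to nM cAMP against a standard curve.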

[2] = target: T2, hGCGR (Homo sapiens, UniProt P47871); experiment: Functional cAMP formation (HTRF) in HEK-293 clonal cells expressing hGCGR, 0.1% bovine casein, without or with 1.0% human serum albumin; settings: 37° C., geometric mean
T2 construct: expressed in transfected cells
T2 sequence (P47871 26-477): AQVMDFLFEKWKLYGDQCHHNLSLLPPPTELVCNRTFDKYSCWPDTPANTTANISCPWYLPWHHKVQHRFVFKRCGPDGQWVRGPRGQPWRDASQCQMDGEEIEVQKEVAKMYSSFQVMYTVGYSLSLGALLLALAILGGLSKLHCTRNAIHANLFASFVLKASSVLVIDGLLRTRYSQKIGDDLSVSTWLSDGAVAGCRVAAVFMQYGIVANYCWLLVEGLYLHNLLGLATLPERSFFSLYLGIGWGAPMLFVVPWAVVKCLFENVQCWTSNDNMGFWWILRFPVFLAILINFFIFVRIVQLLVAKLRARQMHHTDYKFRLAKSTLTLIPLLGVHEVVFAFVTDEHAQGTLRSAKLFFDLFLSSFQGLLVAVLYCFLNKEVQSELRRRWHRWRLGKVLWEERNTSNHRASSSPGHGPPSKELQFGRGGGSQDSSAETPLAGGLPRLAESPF
Method in brief: as §1

[3] = target: hGLP-1R (Homo sapiens, UniProt P43220); experiment: Functional cAMP formation (HTRF) in HEK-293 clonal cells expressing hGLP-1R, 0.1% bovine casein, without or with 1.0% human serum albumin; set-up: expressed in transfected cells; settings: for Emax: percent of maximal response to GLP-1(7-36)NH2; for EC50: cAMP, 0.1% bovine casein (no human serum albumin), geometric mean
hGLP-1R, sequence (P43220 24-463): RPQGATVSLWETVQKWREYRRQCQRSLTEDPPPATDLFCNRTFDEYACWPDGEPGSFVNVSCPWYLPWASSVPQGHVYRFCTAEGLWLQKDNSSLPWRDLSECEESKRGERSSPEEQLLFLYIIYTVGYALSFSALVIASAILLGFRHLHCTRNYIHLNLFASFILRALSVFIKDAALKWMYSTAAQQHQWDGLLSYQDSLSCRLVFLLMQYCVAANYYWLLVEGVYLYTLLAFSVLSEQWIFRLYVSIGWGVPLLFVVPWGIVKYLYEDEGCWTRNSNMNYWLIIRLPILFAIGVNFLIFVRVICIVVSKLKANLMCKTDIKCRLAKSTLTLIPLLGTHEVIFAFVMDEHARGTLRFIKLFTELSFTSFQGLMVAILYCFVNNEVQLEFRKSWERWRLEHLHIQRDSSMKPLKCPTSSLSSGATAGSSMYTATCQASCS
Method in brief: as §1

[4] = HEK293, cAMP, 37° C., 0.1% bovine casein, arithmetic mean, read-out: hGIPR Emax, % ± SEM
[5] = cAMP, 37° C., 0.1% bovine casein (no human serum albumin), read-out: hGIPR EC50, nM (SEM, n)
[6] = 0.1% bovine casein and 1.0% human serum albumin, read-out: hGCGR EC50, nM (SEM, n)
[7] = cAMP, 0.1% bovine casein (no human serum albumin), read-out: hGCGR EC50, nM (SEM, n)
[8] = HEK293, 0.1% bovine casein and 1.0% human serum albumin, 37° C., read-out: hGLP-1R Emax, % ± SEM
[9] = 37° C., read-out: hGLP-1R EC50, nM (SEM, n)
[10] = hGIPR EC50, nM (SEM, n), 0.1% bovine casein and 1.0% human serum albumin, 37° C.
[11] = hGIPR EC50, nM (SEM, n), cAMP, 37° C., 0.1% bovine casein (no human serum albumin)
[12] = hGCGR EC50, nM (SEM, n), 0.1% bovine casein and 1.0% human serum albumin
[13] = hGCGR EC50, nM (SEM, n), cAMP, 0.1% bovine casein (no human serum albumin)
[14] = HEK293, read-out: hGLP-1R Emax, % ± SEM, cAMP, 37° C., 0.1% bovine casein, arithmetic mean
[15] = hGLP-1R EC50, nM (SEM, n), 37° C.
[16] = HEK293, read-out: hGIPR Emax, % ± SEM, cAMP, 37° C., 0.1% bovine casein, arithmetic mean
[17] = HEK293, read-out: hGLP-1R Emax, % ± SEM, 0.1% bovine casein and 1.0% human serum albumin, 37° C.

SMILES | Emax [1, 4] | EC50 [1, 5] | EC50 [2, 6] | EC50 [2, 7] | Emax [3, 8] | EC50 [3, 9] | Emax ([1]; HEK293, 0.1% bovine casein and 1.0% human serum albumin, 37° C., read-out: hGIPR Emax, % ± SEM) | EC50 [1, 10] | EC50 [1, 11] | EC50 [2, 12] | EC50 [2, 13] | Emax [3, 14] | EC50 [3, 15] | Emax ([1]; HEK293, read-out: hGIPR Emax, % ± SEM, 0.1% bovine casein and 1.0% human serum albumin, 37° C.) | Emax [1, 16] | Emax [3, 17]
CC[C@H](C)[C@H](NC(=O)[C@H](CCCN)NC(=O)[C@H](CC(=O)O)NC(=O)[C@H](CC(C)C)NC(=O)[C@](C)(CC(C)C)NC(=O)[C@@H](NC(=O)C(C)(C)NC(=O)[C@@H](NC(=O)[C@H](CC(=O)O)NC(=O)[C@H](CO)NC(=O)[C@@H](NC(=O)[C@](C)(Cc1ccccc1F)NC(=O)[C@@H](NC(=O)CNC(=O)[C@H](CCC(=O)O)NC(=O)C(C)(C)NC(=O)[C@@H](N)Cc1ccc(O)cc1)[C@@H](C)O)[C@@H](C)O)C(C)C)[C@@H](C)CC)C(=O)N[C@@H](C)C(=O)N[C@@H](CCC(N)=O)C(=O)NC(C)(C)C(=O)N[C@@H](CCC(=O)O)C(=O)N[C@@H](Cc1ccccc1)C(=O)N[C@H](C(=O)N[C@@H](CCCCNC(=O)COCCOCCNC(=O)COCCOCCNC(=O)CC[C@H](NC(=O)CCCCCCCCCCCCC(=O)O)C(=O)O)C(=O)N[C@@](C)(Cc1ccc(O)cc1)C(=O)N[C@@H](CC(C)C)C(=O)N[C@H](C(=O)N[C@@H](CCCCNC(=O)COCCOCCNC(=O)COCCOCCNC(=O)CC[C@H](NC(=O)CCCCCCCCCCCCC(=O)O)C(=O)O)C(=O)NCC(=O)NCC(=O)N1CCC[C@H]1C(=O)N[C@@H](CO)C(=O)N[C@@H](CO)C(=O)NCC(=O)N[C@@H](C)C(=O)N1CCC[C@H]1C(=O)N1CCC[C@H]1C(=O)N1CCC[C@H]1C(=O)N[C@@H](CO)C(N)=O)[C@@H](C)CC)[C@@H](C)CC [Example 304] | 110% | 0.047 nM | > 9950 nM | > 9950 nM | 98.3% | 0.474 nM |  |  |  |  |  |  |  |  |  | 
CC[C@H](C)[C@H](NC(=O)[C@H](CCCN)NC(=O)[C@H](CC(=O)O)NC(=O)[C@H](CC(C)C)NC(=O)[C@](C)(CC(C)C)NC(=O)[C@@H](NC(=O)[C@](C)(CO)NC(=O)[C@@H](NC(=O)[C@H](CC(=O)O)NC(=O)[C@H](CO)NC(=O)[C@@H](NC(=O)[C@](C)(Cc1ccccc1F)NC(=O)[C@@H](NC(=O)CNC(=O)[C@H](CCC(=O)O)NC(=O)C(C)(C)NC(=O)[C@@H](N)Cc1ccc(O)cc1)[C@@H](C)O)[C@@H](C)O)C(C)C)[C@@H](C)CC)C(=O)N[C@@H](C)C(=O)N[C@@H](CCC(N)=O)C(=O)NC(C)(C)C(=O)N[C@@H](CCC(=O)O)C(=O)N[C@@H](Cc1ccccc1)C(=O)N[C@H](C(=O)N[C@@H](CCCCNC(=O)COCCOCCNC(=O)COCCOCCNC(=O)CC[C@H](NC(=O)CCCCCCCCCCCCC(=O)O)C(=O)O)C(=O)N[C@@](C)(Cc1ccc(O)cc1)C(=O)N[C@@H](CC(C)C)C(=O)N[C@H](C(=O)N[C@@H](CCCCNC(=O)COCCOCCNC(=O)COCCOCCNC(=O)CC[C@H](NC(=O)CCCCCCCCCCCCC(=O)O)C(=O)O)C(=O)NCC(=O)NCC(=O)N1CCC[C@H]1C(=O)N[C@@H](CO)C(=O)N[C@@H](CO)C(=O)NCC(=O)N[C@@H](C)C(=O)N1CCC[C@H]1C(=O)N1CCC[C@H]1C(=O)N1CCC[C@H]1C(=O)N[C@@H](CO)C(N)=O)[C@@H](C)CC)[C@@H](C)CC [Example 305] | 105% | 0.0289 nM | > 9950 nM | > 9950 nM | 125% | 0.629 nM | 95.4% |  |  |  |  |  |  |  |  | 
CC[C@H](C)[C@H](NC(=O)[C@H](CCCN)NC(=O)[C@H](CC(=O)O)NC(=O)[C@H](CC(C)C)NC(=O)[C@](C)(CC(C)C)NC(=O)[C@@H](NC(=O)[C@](C)(CO)NC(=O)[C@H](Cc1ccncc1)NC(=O)[C@H](CC(=O)O)NC(=O)[C@H](CO)NC(=O)[C@@H](NC(=O)[C@](C)(Cc1ccccc1F)NC(=O)[C@@H](NC(=O)CNC(=O)[C@H](CCC(=O)O)NC(=O)C(C)(C)NC(=O)[C@@H](N)Cc1ccc(O)cc1)[C@@H](C)O)[C@@H](C)O)[C@@H](C)CC)C(=O)N[C@@H](C)C(=O)N[C@@H](CCC(N)=O)C(=O)NC(C)(C)C(=O)N[C@@H](CCC(=O)O)C(=O)N[C@@H](Cc1ccccc1)C(=O)N[C@H](C(=O)N[C@@H](CCCCNC(=O)COCCOCCNC(=O)COCCOCCNC(=O)CC[C@H](NC(=O)CCCCCCCCCOc1ccc(C(=O)O)cc1)C(=O)O)C(=O)N[C@@](C)(Cc1ccc(O)cc1)C(=O)N[C@@H](CC(C)C)C(=O)N[C@H](C(=O)N[C@@H](CCCCNC(=O)COCCOCCNC(=O)COCCOCCNC(=O)CC[C@H](NC(=O)CCCCCCCCCOc1ccc(C(=O)O)cc1)C(=O)O)C(=O)NCC(=O)NCC(=O)N1CCC[C@H]1C(=O)N[C@@H](CO)C(=O)N[C@@H](CO)C(=O)NCC(=O)N[C@@H](C)C(=O)N1CCC[C@H]1C(=O)N1CCC[C@H]1C(=O)N1CCC[C@H]1C(=O)N[C@@H](CO)C(N)=O)[C@@H](C)CC)[C@@H](C)CC [Example 306] |  |  |  |  |  |  |  | 1.12 nM | 0.0227 nM | > 9950 nM | > 9950 nM | 105% | 0.414 nM |  |  | 
CC[C@H](C)[C@H](NC(=O)[C@H](CCCN)NC(=O)[C@H](CC(=O)O)NC(=O)[C@H](CC(C)C)NC(=O)[C@](C)(CC(C)C)NC(=O)[C@@H](NC(=O)[C@](C)(CO)NC(=O)[C@H](Cc1ccc(O)cc1)NC(=O)[C@H](CC(=O)O)NC(=O)[C@H](CO)NC(=O)[C@@H](NC(=O)[C@](C)(Cc1ccccc1F)NC(=O)[C@@H](NC(=O)CNC(=O)[C@H](CCC(=O)O)NC(=O)C(C)(C)NC(=O)[C@@H](N)Cc1ccc(O)cc1)[C@@H](C)O)[C@@H](C)O)[C@@H](C)CC)C(=O)N[C@@H](C)C(=O)N[C@@H](CCC(N)=O)C(=O)NC(C)(C)C(=O)N[C@@H](CCC(=O)O)C(=O)N[C@@H](Cc1ccccc1)C(=O)N[C@H](C(=O)N[C@@H](CCCCNC(=O)COCCOCCNC(=O)COCCOCCNC(=O)CC[C@H](NC(=O)CCCCCCCCCOc1ccc(C(=O)O)cc1)C(=O)O)C(=O)N[C@@](C)(Cc1ccc(O)cc1)C(=O)N[C@@H](CC(C)C)C(=O)N[C@H](C(=O)N[C@@H](CCCCNC(=O)COCCOCCNC(=O)COCCOCCNC(=O)CC[C@H](NC(=O)CCCCCCCCCOc1ccc(C(=O)O)cc1)C(=O)O)C(=O)NCC(=O)NCC(=O)N1CCC[C@H]1C(=O)N[C@@H](CO)C(=O)N[C@@H](CO)C(=O)NCC(=O)N[C@@H](C)C(=O)N1CCC[C@H]1C(=O)N1CCC[C@H]1C(=O)N1CCC[C@H]1C(=O)N[C@@H](CO)C(N)=O)[C@@H](C)CC)[C@@H](C)CC [Example 307] |  |  |  |  |  |  |  | 1.66 nM | 0.0292 nM | > 9950 nM | > 9950 nM |  | 0.376 nM | 81.8% | 105% | 109%
CC[C@H](C)[C@H](NC(=O)[C@H](CCCN)NC(=O)[C@H](CC(=O)O)NC(=O)[C@H](CC(C)C)NC(=O)[C@](C)(CC(C)C)NC(=O)[C@@H](NC(=O)C(C)(C)NC(=O)[C@@H](NC(=O)[C@H](CC(=O)O)NC(=O)[C@H](CO)NC(=O)[C@@H](NC(=O)[C@](C)(Cc1ccccc1F)NC(=O)[C@@H](NC(=O)CNC(=O)[C@H](CCC(=O)O)NC(=O)C(C)(C)NC(=O)[C@@H](N)Cc1ccc(O)cc1)[C@@H](C)O)[C@@H](C)O)C(C)C)[C@@H](C)CC)C(=O)N[C@@H](C)C(=O)N[C@@H](CCC(N)=O)C(=O)NC(C)(C)C(=O)N[C@@H](CCC(=O)O)C(=O)N[C@@H](Cc1ccccc1)C(=O)N[C@H](C(=O)N[C@@H](CCCCNC(=O)COCCOCCNC(=O)COCCOCCNC(=O)CC[C@H](NC(=O)CCCCCCCCCOc1ccc(C(=O)O)cc1)C(=O)O)C(=O)N[C@@](C)(Cc1ccc(O)cc1)C(=O)N[C@@H](CC(C)C)C(=O)N[C@H](C(=O)N[C@@H](CCCCNC(=O)COCCOCCNC(=O)COCCOCCNC(=O)CC[C@H](NC(=O)CCCCCCCCCOc1ccc(C(=O)O)cc1)C(=O)O)C(=O)NCC(=O)NCC(=O)N1CCC[C@H]1C(=O)N[C@@H](CO)C(=O)N[C@@H](CO)C(=O)NCC(=O)N[C@@H](C)C(=O)N1CCC[C@H]1C(=O)N1CCC[C@H]1C(=O)N1CCC[C@H]1C(=O)N[C@@H](CO)C(N)=O)[C@@H](C)CC)[C@@H](C)CC [Example 308] |  |  |  |  |  |  |  |  | 0.0551 nM | > 9950 nM | > 9950 nM | 98% | 0.689 nM |  | 117% | 92.2%

From patent US20230265151A1, “GIP/GLP1 CO-AGONIST COMPOUNDS” (priority 2020, published 2023)
